In patent US12686665B2, “Bicyclic fused ring derivative or salt thereof and pharmaceutical composition comprising same” (YUHAN CORPORATION, priority 2021, dated 2026):
Counter-ions that a name gives are not always drawn.

Key:
Format in all cases: biochemical
[1] = molecular target: T1, recombinant human Lysyl Oxidase-Like 2 (LOXL2) (Homo sapiens, UniProt Q9Y4K0); test: Amplex Red HRP-coupled amine oxidase assay, recombinant human LOXL2; conditions: 60 min incubation with enzyme at 37° C., putrescine substrate, read-out: Inhibitory activity (IC50, nM) human LOXL2
T1 construct: purchased R&D systems
T1 sequence (Q9Y4K0 26-774): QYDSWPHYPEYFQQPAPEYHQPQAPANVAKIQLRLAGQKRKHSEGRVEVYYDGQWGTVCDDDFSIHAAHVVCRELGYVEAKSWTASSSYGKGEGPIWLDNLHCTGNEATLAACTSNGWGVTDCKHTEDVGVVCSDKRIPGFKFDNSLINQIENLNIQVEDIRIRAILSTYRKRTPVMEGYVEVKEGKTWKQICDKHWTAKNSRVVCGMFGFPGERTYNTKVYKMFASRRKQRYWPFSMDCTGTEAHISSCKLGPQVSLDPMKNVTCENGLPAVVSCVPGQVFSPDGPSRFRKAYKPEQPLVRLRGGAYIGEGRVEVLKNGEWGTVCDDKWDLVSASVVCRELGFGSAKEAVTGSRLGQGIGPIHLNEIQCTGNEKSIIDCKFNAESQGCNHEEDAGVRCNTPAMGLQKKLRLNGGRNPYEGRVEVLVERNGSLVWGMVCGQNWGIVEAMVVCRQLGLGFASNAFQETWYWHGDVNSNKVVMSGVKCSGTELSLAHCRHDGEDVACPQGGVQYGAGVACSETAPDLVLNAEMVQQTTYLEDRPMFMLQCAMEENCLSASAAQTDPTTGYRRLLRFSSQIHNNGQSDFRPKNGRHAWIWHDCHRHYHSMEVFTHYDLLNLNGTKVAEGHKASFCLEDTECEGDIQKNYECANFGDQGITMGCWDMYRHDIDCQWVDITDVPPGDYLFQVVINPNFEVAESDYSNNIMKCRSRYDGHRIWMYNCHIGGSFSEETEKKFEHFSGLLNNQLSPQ
In short: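 Putrescine substrate (30 mM) in 50 mM sodium phosphate pH 7.4, 37 °C; compounds preincubated 60 min with enzyme, 1% DMSO final, six-point curves. H2O2 detected via 400 μM Amplex Red/2 U/mL HRP, fluorescence (ex 530/em 590 nm) after 1 h; IC50 from four-parameter logistic fit of % signal reduction.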

[2] = molecular target: T2, recombinant human MAO-A (monoamine oxidase-A) (Homo sapiens, UniProt P21397); test: Amplex Red HRP-coupled amine oxidase assay, recombinant human MAO-A; conditions: 0.5 mM tyramine substrate, read-out: Inhibitory activity (IC50, nM) MAO-A
T2 construct: purchased Sigma-Aldrich
T2 sequence (P21397 1-527): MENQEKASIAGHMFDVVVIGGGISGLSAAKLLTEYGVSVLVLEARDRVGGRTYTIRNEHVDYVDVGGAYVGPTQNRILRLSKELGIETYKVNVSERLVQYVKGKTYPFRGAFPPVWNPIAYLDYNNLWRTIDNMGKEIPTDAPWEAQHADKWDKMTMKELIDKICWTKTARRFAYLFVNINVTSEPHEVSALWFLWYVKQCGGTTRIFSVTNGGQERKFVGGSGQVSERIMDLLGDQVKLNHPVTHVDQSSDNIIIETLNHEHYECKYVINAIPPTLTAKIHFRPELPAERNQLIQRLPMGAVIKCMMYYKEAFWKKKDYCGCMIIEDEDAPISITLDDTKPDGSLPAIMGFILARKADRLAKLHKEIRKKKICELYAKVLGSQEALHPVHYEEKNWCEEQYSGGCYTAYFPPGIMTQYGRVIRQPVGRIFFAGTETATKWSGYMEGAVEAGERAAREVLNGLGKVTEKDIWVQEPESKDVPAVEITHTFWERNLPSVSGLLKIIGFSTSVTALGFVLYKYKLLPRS
Procedure: (§1) The activities of the compounds according to the present invention against recombinant human Lysyl Oxidase-Like 2 (recombinant human LOXL2, R&D systems) were evaluated by measuring the levels of hydrogen peroxide in the HRP (horseradish peroxidase) coupled reactions, with the Amplex Red Hydrogen Peroxide Assay Kit (Molecular Probes, Invitrogen, USA). The tests were carried out at 37° C., and putrescine was used as a substrate. In the HRP coupling reaction, the oxidation of 10-acetyl-3,7-dihydroxyphenoxazine (Amplex Red reagent) by hydrogen peroxide generates a fluorescent product, i.e., resorufin. Briefly, the test compounds were dissolved in dimethyl sulfoxide (DMSO) at a concentration of 20 mM. Dose-response measurements were carried out by serial dilutions in DMSO to generate a six-point curve. The upper concentration was adjusted according to the potency of the compound, and then diluted with the reaction buffer to obtain a final DMSO concentration of 1%. Purified human LOXL2 in 50 mM sodium phosphate buffer (pH7.4) was added to each well of a 96 well black plate. The test compounds dissolved in DMSO were incubated with the human LOXL2 enzyme at 37° C. for 60 minutes. After the incubation for 60 minutes, a reaction mixture containing 400 μM Amplex Red reagent, 30 mM putrescine, and 2 U/mL HRP in 50 mM sodium phosphate buffer (pH 7.4) was added to each well. Fluorescence was measured with a microplate reader (Flexstation3, Molecular Devices), under the conditions of excitation at 530 nm and emission at 590 nm, 1 hour after the addition of the mixture. Inhibition by each compound was measured as % reduction in signal, compared to the control without an inhibitor (diluted DMSO only). The data were fixed to a four-variable logistic model, and […] values were calculated using the GraphPad Prism program.
(§2) And, the activities of the compounds according to the present invention against recombinant human MAO-A (monoamine oxidase-A, Sigma-Aldrich) and recombinant human MAO-B (monoamine oxidase-B, Sigma-Aldrich) were evaluated in a similar manner to the activity evaluation method for recombinant human LOXL2, using 0.5 mM tyramine and 1 mM benzylamine as a substrate, respectively. In addition, the activities of the compounds according to the present invention against recombinant human DAO (diamine oxidase, R&D systems) were evaluated in a similar manner to the activity evaluation method for recombinant human LOXL2, using 1 mM putrescine as a substrate.

[3] = molecular target: T3, recombinant human MAO-B (monoamine oxidase-B) (Homo sapiens, UniProt P27338); test: Amplex Red HRP-coupled amine oxidase assay, recombinant human MAO-B; conditions: 1 mM benzylamine substrate, read-out: Inhibitory activity (IC50, nM) MAO-B
T3 construct: purchased Sigma-Aldrich
T3 sequence (P27338 1-520): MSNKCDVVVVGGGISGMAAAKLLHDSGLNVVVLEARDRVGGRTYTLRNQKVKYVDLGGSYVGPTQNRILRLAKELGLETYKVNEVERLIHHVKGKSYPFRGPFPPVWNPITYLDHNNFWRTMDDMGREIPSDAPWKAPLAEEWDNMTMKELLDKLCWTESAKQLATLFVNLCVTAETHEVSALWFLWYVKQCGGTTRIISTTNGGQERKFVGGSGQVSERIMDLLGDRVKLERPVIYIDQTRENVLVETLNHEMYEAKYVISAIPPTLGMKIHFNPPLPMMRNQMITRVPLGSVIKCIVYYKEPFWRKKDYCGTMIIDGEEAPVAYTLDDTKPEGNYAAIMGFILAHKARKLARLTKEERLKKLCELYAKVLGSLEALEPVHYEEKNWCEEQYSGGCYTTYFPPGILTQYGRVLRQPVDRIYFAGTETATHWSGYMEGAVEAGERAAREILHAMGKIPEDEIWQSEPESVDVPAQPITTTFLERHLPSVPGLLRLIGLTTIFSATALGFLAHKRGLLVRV
Procedure: as §1, §2

[4] = molecular target: T4, recombinant human DAO (diamine oxidase) (Homo sapiens, UniProt P19801); test: Amplex Red HRP-coupled amine oxidase assay, recombinant human DAO; conditions: 1 mM putrescine substrate, read-out: Inhibitory activity (IC50, nM) DAO
T4 construct: purchased R&D systems
T4 sequence (P19801 20-751): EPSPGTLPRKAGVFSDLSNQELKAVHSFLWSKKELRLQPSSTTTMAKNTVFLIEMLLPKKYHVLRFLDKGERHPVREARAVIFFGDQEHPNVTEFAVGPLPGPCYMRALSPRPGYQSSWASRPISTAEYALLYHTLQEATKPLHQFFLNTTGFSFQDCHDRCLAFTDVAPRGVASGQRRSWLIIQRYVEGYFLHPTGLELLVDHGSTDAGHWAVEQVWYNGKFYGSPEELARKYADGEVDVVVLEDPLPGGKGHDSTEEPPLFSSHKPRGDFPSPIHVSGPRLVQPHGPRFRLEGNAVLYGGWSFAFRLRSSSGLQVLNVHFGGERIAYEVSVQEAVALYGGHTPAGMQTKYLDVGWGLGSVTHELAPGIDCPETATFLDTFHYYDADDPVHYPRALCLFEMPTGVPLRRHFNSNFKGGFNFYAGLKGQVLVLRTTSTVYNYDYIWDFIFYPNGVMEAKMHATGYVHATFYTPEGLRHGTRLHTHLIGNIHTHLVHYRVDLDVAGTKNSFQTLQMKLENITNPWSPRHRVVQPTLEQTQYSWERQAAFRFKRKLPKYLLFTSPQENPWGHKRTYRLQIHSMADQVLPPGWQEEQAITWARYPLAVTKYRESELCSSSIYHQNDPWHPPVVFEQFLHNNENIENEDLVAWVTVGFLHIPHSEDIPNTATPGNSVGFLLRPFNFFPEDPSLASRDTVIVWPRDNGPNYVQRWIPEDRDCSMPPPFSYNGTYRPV
Procedure: as §1, §2

SMILES | IC50 [1] [nM] | IC50 [2] [nM] | IC50 [3] [nM] | IC50 [4] [nM]
NC/C=C(\F)Cn1cnc2c(-c3cncc(Cl)c3)cc(C(F)(F)F)cc21 [Example 174, (Z)-4-(4-(5-chloropyridin-3-yl)-6-(trifluoromethyl)-1H-benzo[d]imidazol-1-yl)-3-fluoro-but-2-en-1-amine hydrochloride] | 304 | 81200 | > 100000 | 2210
N#Cc1cc(-c2ccn(CCO)n2)c2ncn(C/C(F)=C/CN)c2c1 [Example 195, (Z)—1-(4-amino-2-fluorobut-2-en-1-yl)-4-(1-(2-hydroxyethyl)-1H-pyrazol-3-yl)-1H-benzo[d]imidazol-6-carbonitrile hydrochloride] | 159 | > 100000 | > 100000 | 5560
COC(=O)c1cc(-c2cccc(S(=O)(=O)N3CCCC3)c2)c2nc(C)n(C/C(F)=C/CN)c2c1 [Example 70, methyl (Z)-1-(4-amino-2-fluorobut-2-en-1-yl)-2-methyl-4-(3-(pyrrolidin-1-ylsulfonyl)phenyl)-1H-benzo[d]imidazol-6-carboxylate hydrochloride] | 60 | 10300 | > 100000 | 2500
COC(=O)c1cc(-c2ccc(OC)c(S(=O)(=O)N(C)C)c2)c2ncn(C/C(F)=C/CN)c2c1 [Example 21, methyl (Z)-1-(4-amino-2-fluorobut-2-en-1-yl)-4-(3-(N,N-dimethylsulfamoyl)-4-methoxyphenyl)-1H-benzo[d]imidazol-6-carboxylate hydrochloride] | 22.7 | 12200 | > 100000 | 380
CNS(=O)(=O)c1cccc(-c2cc(C(F)(F)F)cc3c2ncn3C/C(F)=C/CN)c1 [Example 20, (Z)-3-(1-(4-amino-2-fluorobut-2-en-1-yl)-6-(trifluoromethyl)-1H-benzo[d]imidazol-4-yl)-N-methylbenzenesulfonamide hydrochloride] | 77 | > 100000 | > 100000 | > 100000
COc1ccc(-c2cccc3c2nnn3C/C(F)=C/CN)cc1S(=O)(=O)N(C)C [Example 102, (Z)-5-(1-(4-amino-2-fluorobut-2-en-1-yl)-1H-benzo[d][1,2,3]triazol-4-yl)-2-methoxy-N,N-dimethylbenzenesulfonamide hydrochloride] | 17 | 86600 | 12400 | 37400
NC/C=C(\F)Cn1nnc2c(-c3cccc(S(=O)(=O)N4CCC(F)(F)C4)c3)cccc21 [Example 103, (Z)-4-(4-(3-((3,3-difluoropyrrolidin-1-yl)sulfonyl)phenyl)-1H-benzo[d][1,2,3]triazol-1-yl)-3-fluorobut-2-en-1-amine hydrochloride] | 25 | 9060 | 23500 | 27900
CNS(=O)(=O)c1cccc(-c2cc(C(=O)OC)cc3c2ncn3C/C(F)=C/CN)c1 [Example 30, methyl (Z)-1-(4-amino-2-fluorobut-2-en-1-yl)-4-(3-(N-methylsulfamoyl)phenyl)-1H-benzo[d]imidazol-6-carboxylate hydrochloride] | 29.7 | > 100000 | > 100000 | 3460
CN(C)S(=O)(=O)c1cccc(-c2cc(C#N)cc3c2ncn3C/C(F)=C/CN)c1 [Example 182, (Z)-3-(1-(4-amino-2-fluorobut-2-en-1-yl)-6-cyano-1H-benzo[d]imidazol-4-yl)-N,N-dimethylbenzenesulfonamide hydrochloride] | 28.7 | > 100000 | > 100000 | 
Cn1nccc1-c1cc(C#N)cc2c1ncn2C/C(F)=C/CN [Example 191, (Z)-1-(4-amino-2-fluorobut-2-en-1-yl)-4-(1-methyl-1H-pyrazol-5-yl)-1H-benzo[d]imidazol-6-carbonitrile hydrochloride] | 95.5 | > 100000 | > 100000 | 
